Experimental data from ChEMBL document CHEMBL1135326, “Structure-activity relationship studies of ethyl 2-[(3-methyl-2,5-dioxo(3-pyrrolinyl))amino]-4-(trifluoromethyl)pyrimidine-5-carboxylate: an inhibitor of AP-1 and NF-kappaB mediated gene expression” (Bioorg Med Chem Lett, 2002).

System: Jurkat
Assay: Inhibition of AP-1 and NF-kB-mediated transcriptional activation in Jurkat cells
Type: functional, cell-based, Homo sapiens

Row | SMILES | IC50 (Homo sapiens, Jurkat) [µM] | IC50 (jurkat) [µM]
1 | CCOC(=O)c1cnc(N(C)N2C(=O)C=C(C)C2=O)nc1-c1nccs1 | 1.7 | 
2 | CCCC(=O)c1cnc(NN2C(=O)C=C(C)C2=O)nc1CC | 0.45 | 
3 | CCc1nc(NN2C(=O)C=C(C)C2=O)ncc1-c1nc(C)co1 | 0.83 | 
4 | CCc1nc(NN2C(=O)C=C(C)C2=O)ncc1-c1nnc(C)o1 | 10 | 
5 | CCc1nc(NN2C(=O)C=C(C)C2=O)ncc1-c1nnn(C)n1 | 10 | 
6 | CCOC(=O)c1cnc(N(C)N2C(=O)C=C(C)C2=O)nc1-c1ccc(C)s1 | 0.35 | 
7 | CCOC(=O)c1cnc(N)nc1C(F)(F)F | 30 | 
8 | CC(=O)c1cnc(NN2C(=O)C=C(C)C2=O)nc1C | 7.7 | 
9 | CCOC(=O)c1cnc(NN2C(=O)C=C(C)C2=O)nc1-c1ccc(Cl)s1 | 0.52 | 
10 | CCOC(=O)c1cnc(NN2C(=O)C=C(C)C2=O)nc1-c1cc2ccccc2s1 | 0.8 | 
11 | CC1=CC(=O)N(Nc2ncc(-c3nc(C)co3)c(-c3cccs3)n2)C1=O | 0.76 | 
12 | CCOC(=O)c1cnc(N(Cc2ccccc2)N2C(=O)C=C(C)C2=O)nc1C(F)(F)F | 0.45 | 
13 | CCc1nc(N(C)N2C(=O)C=C(C)C2=O)ncc1C(=O)c1ccccc1 | 0.41 | 
14 | CCOC(=O)c1cnc(N(C)N2C(=O)C=C(C)C2=O)nc1C(F)(F)C(F)(F)F | 0.35 | 0.45
15 | CCOC(=O)c1cnc(N(C(=O)c2ccccc2)N2C(=O)C=C(C)C2=O)nc1C(F)(F)F | 0.83 | 
16 | CCc1nc(NN2C(=O)C=C(C)C2=O)ncc1C(=O)c1ccccc1 | 0.65 | 

Row | SMILES | IC50 (Homo sapiens, Jurkat) [µM] | IC50 (jurkat) [µM]
17 | CC1=CC(=O)N(Nc2ncc(C(=O)OC(C)(C)C)c(-c3cccs3)n2)C1=O | 0.05 | 
18 | CCc1nc(NN2C(=O)C=C(C)C2=O)ncc1-c1ncc(-c2ccccc2)o1 | 2.8 | 
19 | CCOC(=O)c1cnc(NN2C(=O)C=C(C)C2=O)nc1-c1ccccc1 | 1.2 | 
20 | CCOC(=O)c1cnc(N(C(=O)OCC)N2C(=O)C=C(C)C2=O)nc1C(F)(F)F | 0.38 | 
21 | CCc1nc(NN2C(=O)C=C(C)C2=O)ncc1C(=O)OC1CC1 | 0.12 | 
22 | CCc1nc(NN2C(=O)C=C(C)C2=O)ncc1-c1cc(C)no1 | 10 | 
23 | CCOC(=O)c1cnc(N(C)N2C(=O)C=C(C)C2=O)nc1CC | 0.035 | 
24 | CCOC(=O)c1cnc(N(C)N2C(=O)C=C(C)C2=O)nc1-c1ccsc1 | 0.12 | 
25 | CCc1nc(NN2C(=O)C=C(C)C2=O)ncc1CO | 4.9 | 
26 | CCc1nc(N(C)N2C(=O)C=C(C)C2=O)ncc1COC | 0.63 | 
27 | CCOC(=O)c1cnc(NN2C(=O)C=C(C)C2=O)nc1-c1ccc(C)s1 | 0.045 | 
28 | CCOC(=O)c1cnc(N(C)N2C(=O)C=C(C)C2=O)nc1-c1cc2ccccc2s1 | 0.13 | 
29 | CCOC(=O)c1cnc(NN2C(=O)C=C(C)C2=O)nc1Cc1ccccc1 | 3.8 | 
30 | CCc1nc(NN2C(=O)C=C(C)C2=O)ncc1C#N | 1.1 | 
31 | CCOC(=O)c1cnc(N(C)N2C(=O)C=C(C)C2=O)nc1-c1cccs1 | 0.094 | 
32 | CCCc1nc(N(C(C)=O)N2C(=O)C=C(C)C2=O)ncc1C(=O)OCC | 0.43 | 

Continued, values first:

Row | IC50 (Homo sapiens, Jurkat) [µM] | IC50 (jurkat) [µM] | SMILES
33 | 0.14 |  | CCOC(=O)c1cnc(NN2C(=O)C=C(C)C2=O)nc1-c1cccs1
34 | 0.2 |  | CCOC(=O)c1cnc(NN2C(=O)C=C(C)C2=O)nc1-c1ccsc1
35 | 30 |  | CC1=CC(=O)N(Nc2ncc(C(=O)N(C)C)c(C(F)(F)F)n2)C1=O
36 | 0.59 |  | CCOC(=O)c1cnc(N(C(=O)NC)N2C(=O)C=C(C)C2=O)nc1C(F)(F)F
37 | 0.098 |  | CC1=CC(=O)N(Nc2ncc(C(=O)c3ccccc3)c(C(F)(F)F)n2)C1=O
38 | 1.9 |  | CCOC(=O)c1cnc(NN2C(=O)C=C(C)C2=O)nc1C
39 | 3.7 |  | CCOC(=O)c1cnc(NN2C(=O)C=C(c3ccccc3)C2=O)nc1C(F)(F)F
40 | 30 |  | CC1=CC(=O)N(Nc2ncc(C(=O)O)c(C(F)(F)F)n2)C1=O
41 | 13 |  | CCOC(=O)c1cnc(NN2C(=O)C=C(C)C2=O)nc1
42 | 0.2 |  | CCOC(=O)c1cnc(NN2C(=O)C=C(C)C2=O)nc1C(F)(F)C(F)(F)F
43 | 0.4 |  | CCOC(=O)c1cnc(NN2C(=O)C=C(C)C2=O)nc1CC
44 | 30 |  | CC1=CC(=O)N(Nc2ncc(C(N)=O)c(C(F)(F)F)n2)C1=O
45 | 6 |  | CCOC(=O)c1cnc(NN2C(=O)C=C(C)C2=O)nc1COC
46 | 1.5 |  | CCOC(=O)c1cnc(NN2C(=O)C=C(C)C2=O)nc1C1CC1
47 | 0.21 |  | CC1=CC(=O)N(Nc2ncc(C(=O)OC(C)(C)C)c(C(F)(F)F)n2)C1=O
48 | 1.6 |  | CCOC(=O)c1cnc(NN2C(=O)CCC2=O)nc1C(F)(F)F
49 | 0.3 |  | CCOC(=O)c1cnc(N(C)N2C(=O)C=C(C)C2=O)nc1C(F)(F)F
50 | 0.41 |  | CCOC(=O)c1cnc(N(C(C)=O)N2C(=O)C=C(C)C2=O)nc1C(F)(F)F
51 | 2 |  | CCOC(=O)c1cnc(NN2C(=O)C=C(C)C2=O)nc1C(F)(F)F
52 | 2.2 |  | CCOC(=O)c1cnc(NN2C(=O)C=C(C)C2=O)nc1-c1nccs1
53 | 1 |  | CCOC(=O)c1cnc(NN2C(=O)C=C(C)C2=O)nc1-c1ccco1
54 | 3.9 |  | CCOC(=O)c1cnc(NN2C(=O)C(C)=C(C)C2=O)nc1C(F)(F)F
55 | 4.4 |  | CC(=O)c1cnc(NN2C(=O)C=C(C)C2=O)nc1C(F)(F)F
